{"source": "patent US20110111417A1", "about": "“METHODS AND KITS FOR MONITORING THE EFFECTS OF IMMUNOMODULATORS ON ADAPTIVE IMMUNITY” (priority 2008, published 2011)", "key": {"germinal centers": {"tested_on": "germinal centers", "assay": "Immunohistochemistry of mouse spleen cryosections (Bcl-6 germinal centers, CD3 T cells), scored by pathologist", "assay_type": "in vivo", "description": "(§1) Female C57BL/6 mice (Charles River Laboratories, Bedford, Mass.) were used in these studies and treated with a beta-carboline, N-(6-chloro-7-methoxy-9H-beta-carbolin-8-yl)-2-methyl-nicotinamide (ML120B) following three different treatment regimens, A, B, and C. After the treatment, animals were euthanized and tissues were collected and frozen. Germinal centers were identified by immunohistochemistry (IHC) of cryosections (6 μm) using an antibody to mouse Bcl-6. T cells also were identified by IHC of serial cryosections, using an antibody to mouse CD3. The size and/or frequency of germinal centers and T cells were scored by a board-certified anatomic pathologist, using a 0 (low) to 4 (high) scale.\n(§2) Mice were given a single oral dose of ML120B as indicated (n=4/group) for 6 hours. The level of mouse mu heavy chain germline transcript was measured in RNA isolated from serial cryosections by qRT-PCR.\n(§3) Mice were given a single oral dose of ML120B as indicated (n=4/group) for 18 hours. The level of mouse mu heavy chain germline transcript was measured in RNA isolated from serial cryosections by qRT-PCR.\nMice were given twice daily oral dose of ML120B by gavage, as indicated (n=4/group) for four days. The level of mouse mu, gamma 3 and gamma 1 heavy chain germline transcript, AICDA transcript, gamma 1 & 2 circle transcript and 18S rRNA were measured in RNA isolated from serial cryosections by qRT-PCR. […] Germinal centers expressing Bcl-6 decreased 10-fold at 300 mg/kg (FIG. 3). Germline transcripts mu, gamma 3 and gamma 1 decreased from 10-1000-fold at 300 mg/kg (FIG. 3). Transcripts encoding AICDA decreased 100-1000-fold at 300 mg/kg (FIG. 3). Circle transcript gamma 1&2 decreased 10-fold at 100 mg/kg (FIG. 3)."}, "[1]": {"tested_on": "switch transcripts in mouse spleens", "assay": "qRT-PCR of switch transcripts in mouse spleens", "assay_type": "in vivo", "settings": "spleen", "description": "as §1\nTotal ribonucleic acid (RNA) was isolated from 10 spleen cryosections, each […], using the RNEASY® Universal Tissue 8000 Kit (QIAGEN Inc., Valencia, Calif.) on a BIOROBOT® 8000 Workstation (QIAGEN INC., Valencia, Calif.), and deoxyribonucleic acidase (DNASE)-treated according to the manufacturer's protocol. The purity and yield of the RNA were assessed via spectrophotometry from 220 to 750 nm using the NANODROP® ND-1000 (NANODROP Technologies, Wilmington, Del.). The integrity of the RNA was measured with the RNA 6000 NANO LABCHIP® Kit (AGILENT Technologies, Foster City, Calif.) on an AGILENT 2100 Bioanalyzer (AGILENT Technologies, Foster City, Calif.) and calculated using the RNA integrity number (RIN) algorithm (Schroeder et al. (2006) BMC Mol. Biol. 7:3). Deoxyribonucleic acidase-treated RNA was extracted from the samples and stored at −80° C. First strand complementary deoxyribonucleic acid (cDNA) synthesis was performed using a TAQMAN® Gold RT Master Mix (Applied Biosystems, Foster City, Calif.) according to the manufacturer's protocol, except that both oligothymidylic (oligo[dT]) and random hexamers were used for priming. The quality of synthesized cDNA was assessed by generating expression profiles of endogenous reference genes with a real-time polymerase chain reaction (PCR) system, the ABI PRISM® 7900HT Sequence Detection System (Applied Biosystems, Foster City, Calif.). Complementary deoxyribonucleic acid samples were stored at −20° C.\nSequences for all biomarkers (Table 1) were derived from mouse and human deoxyribonucleic acid (DNA) sequence (GENBANK® database [online] maintained by National Center for Biotechnology Information, Bethesda, Md.). Quantitative reverse-transcriptase polymerase chain reaction assays were performed on an ABI PRISM® 7900HT Sequence Detection System (Applied Biosystems, Inc. (Foster City, Calif.) using a SYBR-green detection system (Qiagen Inc., Valencia, Calif.). All quantitative assays were run using universal thermal cycling parameters: hold at 95° C. for 2 minutes to activate the DNA polymerase, then run 40 three-part cycles (95° C. for 20 seconds, 58° C. for 20 seconds, and 76° C. for 20 seconds). Data were analyzed using sequence detection system (SDS) software, Version 1.7 (Applied Biosystems, Inc. (Foster City, Calif.). […] From each amplification plot, a threshold cycle (Ct) value was calculated. […] The Ct values were exported to an EXCEL® (MICROSOFT Corp., Redmond, Wash.) spreadsheet and relative expression (x) was calculated as shown in equation 2.\nas §2, §3\nMice were given twice daily oral dose of ML120B by gavage, as indicated (n=4/group) for four days. The level of mouse mu, gamma 3 and gamma 1 heavy chain germline transcript, AICDA transcript, gamma 1 & 2 circle transcript and 18S rRNA were measured in RNA isolated from serial cryosections by qRT-PCR. […]"}, "[2]": {"settings": "single oral dose 300 mg/kg, 18 hours"}, "[3]": {"settings": "single oral dose, within first 6 hours"}, "[4]": {"settings": "twice daily oral 300 mg/kg, four days"}}}
{"smiles": "COc1c(Cl)cc2c([nH]c3cnccc32)c1NC(=O)c1cccnc1C", "note": "[ML120B, N-(6-chloro-7-methoxy-9H-beta-carbolin-8-yl)-2-methyl-nicotinamide]", "values": [{"measurement": "reduction in germinal centers", "setting": "germinal centers; [2]", "result": 10, "unit": "fold"}, {"measurement": "frequency of T cells", "setting": "germinal centers; single oral dose, 6 hours", "result": "remained unchanged"}, {"measurement": "frequency of T cells", "setting": "germinal centers; single oral dose, 18 hours", "result": "remained unchanged"}, {"measurement": "decrease in frequency of germinal centers", "setting": "germinal centers; [3]", "result": 50, "unit": "%"}, {"measurement": "decrease in germinal centers expressing Bcl-6", "setting": "germinal centers; [4]", "result": 10, "unit": "fold"}, {"measurement": "reduction in mu germline transcripts", "setting": "[1]; [2]", "result": 1000, "unit": "fold"}, {"measurement": "level of 18S rRNA", "setting": "[1]; single oral dose, 18 hours", "result": "remained unchanged"}, {"measurement": "decrease in level of mu germline transcripts", "setting": "[1]; [3]", "result": 50, "unit": "%"}, {"measurement": "decrease in circle transcript gamma 1&2", "setting": "[1]; twice daily oral 100 mg/kg, four days", "result": 10, "unit": "fold"}, {"measurement": "decrease in germline transcripts mu, gamma 3 and gamma 1", "setting": "[1]; [4]", "result": "10-1000 fold"}, {"measurement": "decrease in transcripts encoding AICDA", "setting": "[1]; [4]", "result": "100-1000 fold"}, {"measurement": "level of 18S rRNA", "setting": "[1]; twice daily oral, four days", "result": "remained unchanged"}]}
